This is an account of results in ChEMBL document CHEMBL5512688 (J Med Chem, 2024).

Series [1] concerns LoVo. Nature of the series: Antitumor activity against human LoVo cells xenografted in female BALB/c nude mouse assessed as tumor growth inhibition at 60 mg/kg, IG administered once daily for 27 days. The note with it: po, 648 h, time 27 day, read-out: TGI. The format is functional.
Series [2] deals with A-427. Nature of the series: Induction of cell cycle arrest in human A-427 cells assessed as accumulation of cells at S phase at 400 nM measured for 48 hrs by flow cytometry analysis (reference value: 4 %). The format is functional. Background: A flow cytometer gives signals particle by particle.
Series [3] has as its system A-427. As to the kind of experiment: Induction of apoptosis in human A-427 cells assessed as necrotic cells at 400 nM measured for 48 hrs by Annexin V/PI double staining based flow cytometry analysis (reference value: 0.098%). The format is functional.
A short description of series [4]: Clearance in ICR mouse at 1 mg/kg, iv measured upto 24 hrs by LC-MS/MS analysis. The format is ADME, organism-based. The note with it: in vivo.
Series [5] relates to A-427. Nature of the series: Induction of cell cycle arrest in human A-427 cells assessed as accumulation of cells at G2/M phase at 200 nM measured for 48 hrs by flow cytometry analysis (reference value: 10.9 %). The format is functional.
Series [6] relates to A-427. As to the kind of experiment: Induction of cell cycle arrest in human A-427 cells assessed as accumulation of cells at G2/M phase at 400 nM measured for 48 hrs by flow cytometry analysis (reference value: 10.9 %). The format is functional.
Series [7] relates to A-427. As to the kind of experiment: Induction of cell cycle arrest in human A-427 cells assessed as accumulation of cells at G0/G1 phase at 100 nM measured for 48 hrs by flow cytometry analysis (reference value: 49.5%). The format is functional.
The nature of series [8]: Metabolic stability in mouse liver microsome assessed as parent compound remaining measured at 60 mins by LCMS/MS analysis. The conditions noted are these: liver microsomes, read-out: Stability. The format is ADME.
For series [9], the system named is A-427. Nature of the series: Induction of apoptosis in human A-427 cells assessed as necrotic cells at 200 nM measured for 48 hrs by Annexin V/PI double staining based flow cytometry analysis (reference value: 0.098%). The format is functional.
Series [10] relates to A-427. Nature of the series: Induction of cell cycle arrest in human A-427 cells assessed as accumulation of cells at S phase at 100 nM measured for 48 hrs by flow cytometry analysis (reference value: 4 %). The format is functional.
Series [11] deals with T1, Mitogen-activated protein kinase kinase kinase 19 (Homo sapiens) (UniProt Q56UN5).
T1 sequence (whole entry): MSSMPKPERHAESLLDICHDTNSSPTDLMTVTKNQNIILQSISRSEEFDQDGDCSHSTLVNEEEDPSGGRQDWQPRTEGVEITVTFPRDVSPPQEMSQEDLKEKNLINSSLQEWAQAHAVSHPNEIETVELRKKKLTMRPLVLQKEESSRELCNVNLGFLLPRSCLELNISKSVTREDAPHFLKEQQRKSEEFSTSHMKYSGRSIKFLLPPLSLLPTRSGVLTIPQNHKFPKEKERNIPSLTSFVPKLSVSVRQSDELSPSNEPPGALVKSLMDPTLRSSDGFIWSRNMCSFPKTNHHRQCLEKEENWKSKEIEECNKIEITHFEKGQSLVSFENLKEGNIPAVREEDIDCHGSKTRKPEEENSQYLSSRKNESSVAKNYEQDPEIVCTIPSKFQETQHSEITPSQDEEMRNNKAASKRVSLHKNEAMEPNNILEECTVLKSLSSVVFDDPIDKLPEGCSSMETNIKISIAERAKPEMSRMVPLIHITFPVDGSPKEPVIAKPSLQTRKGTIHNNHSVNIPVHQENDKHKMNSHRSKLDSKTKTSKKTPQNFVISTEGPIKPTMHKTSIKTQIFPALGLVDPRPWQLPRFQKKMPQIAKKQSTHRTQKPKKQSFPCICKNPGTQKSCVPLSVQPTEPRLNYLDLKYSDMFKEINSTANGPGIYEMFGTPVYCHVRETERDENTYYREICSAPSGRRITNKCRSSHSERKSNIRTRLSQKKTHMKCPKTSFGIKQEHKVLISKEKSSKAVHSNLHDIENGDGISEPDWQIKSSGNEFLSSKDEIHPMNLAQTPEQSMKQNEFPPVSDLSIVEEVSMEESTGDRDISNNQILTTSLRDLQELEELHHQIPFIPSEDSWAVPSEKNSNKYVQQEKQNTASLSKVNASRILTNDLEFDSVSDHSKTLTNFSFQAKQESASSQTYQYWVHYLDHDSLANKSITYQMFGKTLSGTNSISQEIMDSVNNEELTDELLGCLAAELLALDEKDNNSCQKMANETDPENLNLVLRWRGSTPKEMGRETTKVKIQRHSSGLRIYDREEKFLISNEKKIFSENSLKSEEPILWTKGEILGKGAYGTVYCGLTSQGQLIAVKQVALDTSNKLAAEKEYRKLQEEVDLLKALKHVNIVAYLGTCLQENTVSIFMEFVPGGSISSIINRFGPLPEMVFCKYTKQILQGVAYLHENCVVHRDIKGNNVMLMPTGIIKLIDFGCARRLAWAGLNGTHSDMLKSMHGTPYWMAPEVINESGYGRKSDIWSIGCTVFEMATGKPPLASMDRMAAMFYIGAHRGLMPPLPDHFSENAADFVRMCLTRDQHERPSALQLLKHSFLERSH
Nature of the series: Inhibition of MAP3K19 (unknown origin) at 1 uM relative to control.

Series [12] deals with A-427. Nature of the series: Induction of apoptosis in human A-427 cells assessed as viable cells at 400 nM measured for 48 hrs by Annexin V/PI double staining based flow cytometry analysis (reference value: 97.7%). The format is functional. The note with it: read-out: Activity.
The nature of series [13]: Half life in ICR mouse at 1 mg/kg, iv measured upto 24 hrs by LC-MS/MS analysis. The format is ADME, organism-based. The note with it: in vivo.
The nature of series [14]: AUC (0 to 24 hrs) in ICR mouse at 1 mg/kg, iv measured upto 24 hrs by LC-MS/MS analysis. The format is ADME, organism-based. The note with it: in vivo.
In series [15] the test system is A-427. Nature of the series: Induction of apoptosis in human A-427 cells assessed as early apoptotic cells at 200 nM measured for 48 hrs by Annexin V/PI double staining based flow cytometry analysis (reference value: 1.96%). The format is functional.
Series [16] is described as follows: Volume of distribution in ICR mouse at 1 mg/kg, iv measured upto 24 hrs by LC-MS/MS analysis. The format is ADME, organism-based. The note with it: in vivo.
Series [17] is described as follows: Acute toxicity in female C57 mouse assessed as reduction in body weight at 2000 mg/kg, IG measured for 14 days. The format is organism-based. The conditions noted are these: in vivo, po, 336 h, time 14 day.
The subject of series [18] is A-427. Nature of the series: Induction of cell cycle arrest in human A-427 cells assessed as accumulation of cells at G0/G1 phase at 400 nM measured for 48 hrs by flow cytometry analysis (reference value: 49.5%). The format is functional.

In general, clearance refers to the rate of elimination divided by the concentration. Lower therefore signals a low capacity for elimination. For orientation: inhibition means the change of the read-out against control, counted positive when it falls. A high value points to a strong effect. Broadly, the half-life is the time needed for the level to fall by half in the phase considered. Lower therefore signals fast loss. As usually defined, the AUC(0-t) is the area under the concentration-time curve up to a stated or last time point. Broadly, the Vd is a proportionality between amount in the body and measured concentration, not a real space.

On to `C=CCn1c(=O)c2cnc(Nc3ccc(N4CCN(C)CC4)cc3)nc2n1-c1cccc(-c2cnccn2)n1`, for which, in series [1], the inhibition in vivo at 60 mg/kg came out at 88%. In addition, the Activity amounted to 59.1% in [2]; 2.33% in [3]; 6.58% in series [5]; 9.32% in series [6]; 41.4% in [7]; 4.82% in [9]. The Activity in series [10] was 48.5%; in series [15] it was 9.02%; in series [17], “Non-Toxic”; in series [18], 31.3%. The compound also had a clearance in series [4] of 137 mL/min/kg. The remaining at 1 h in series [8] was 33.9%. Also, the inhibition in series [11] was greater than 90%. In addition, the viability at 0.4 µM in [12] stood at 58.3%. The compound also gave a half-life in [13] of 1.06 h. Further, in [14], the AUC(0-t) at 24 h came to 118 ng·h/mL. In series [16], this compound had a Vd of 11.3 L/kg.
